Drawing on ChEMBL document CHEMBL4177652, “Synthesis of 14-deoxy-11,12-didehydroandrographolide analogues as potential cytotoxic agents for cholangiocarcinoma” (Bioorg Med Chem Lett, 2017), this text covers EC50 and GI50 for 18 compounds.

One series deals with P388. Put plainly: Growth inhibition of mouse P388 cells after 72 hrs by SRB assay. The format is functional. To be noted: P388, 72 h, read-out: ED50 (the source's name). For orientation: Sulforhodamine B stains cellular protein and so reports cell mass.
In a further series the test system is KB. Description: Growth inhibition of human KB cells after 72 hrs by SRB assay. The format is functional. To be noted: read-out: ED50 (the source's name).
The next series deals with HT-29. Put plainly: Growth inhibition of human HT-29 cells after 72 hrs by SRB assay. To be noted: HT-29, 72 h, read-out: ED50 (the source's name). The format is functional.
The next series deals with MCF7. Put plainly: Growth inhibition of human MCF7 cells after 72 hrs by SRB assay. The format is functional. To be noted: MCF7, 72 h, read-out: ED50 (the source's name).
A further series relates to A549. Put plainly: Growth inhibition of human A549 cells after 72 hrs by SRB assay. To be noted: A549, 72 h, read-out: ED50 (the source's name). The format is functional.
The nature of series [1]: Growth inhibition of rat ASK cells after 72 hrs by SRB assay. To be noted: read-out: ED50 (the source's name). The format is functional.
The nature of series [2]: Growth inhibition of human KKU-M213 cells after 72 hrs by SRB assay. The format is functional. To be noted: KKU-M213, 72 h, read-out: ED50 (the source's name).
For the next series, the system named is HuCC-A1. Put plainly: Growth inhibition of human HuCCa1 cells after 72 hrs by SRB assay. The format is functional. To be noted: HuCC-A1, 72 h, read-out: ED50 (the source's name).
Series [3] is described as follows: Growth inhibition of human KKU100 cells after 72 hrs by SRB assay. The conditions noted are these: KKU100, 72 h, read-out: ED50 (the source's name). The format is functional.
Series [4] in a line: Growth inhibition of human HEK293 cells after 72 hrs by SRB assay. The format is cell-based. The conditions noted are these: read-out: ED50.

Consider `C=C1CC[C@@H]2[C@](C)(COC(c3ccccc3)(c3ccccc3)c3ccccc3)[C@H](O)CC[C@@]2(C)[C@@H]1/C=C/C1=CCOC1=O`, for which the EC50 in the series on P388 turned out to be 3.87 µM; in the series with KB, 4.94 µM; in the series with HT-29, 8.38 µM; in the series with MCF7 it was 4.86 µM; in the series with A549, 6.79 µM; in series [1], 7.45 µM. For the same compound, the values for the EC50 (in series [2]; with HuCC-A1; in [3]) were 5.42 µM, 7.78 µM and 36.2 µM, respectively. For the same compound, the GI50 at 72 h in series [4] stood at 4.68 µM.

Regarding `CC(C)(C)[Si](C)(C)OC[C@@]1(C)[C@H]2CC[C@@]3(CO3)[C@@H](/C=C/C3=CCOC3=O)[C@]2(C)CC[C@H]1O`, the EC50 worked out at 15.1 µM in the series on P388; 19.2 µM in the series with KB; 7.24 µM with HT-29; 8.18 µM in the series with MCF7; 9.36 µM with A549; 19 µM in series [1]. In addition, the EC50 was 8.57 µM in series [2], above 50 µM in the series with HuCC-A1 and 9.25 µM in [3]. For the same compound, in [4], the GI50 at 72 h was 6.15 µM.

As for `CC(=O)O[C@@H]1CC[C@]2(C)[C@H](CC[C@@]3(CO3)[C@H]2/C=C/C2=CCOC2=O)[C@]1(C)CO[Si](C)(C)C(C)(C)C`, the EC50 came to 7.45 µM in the series with P388; 25.8 µM with KB; 18.6 µM in the series with HT-29; 16.6 µM with MCF7; 24.1 µM in the series on A549; 22.4 µM in series [1]. Moreover, the EC50 worked out at 19.1 µM in [2], 23.4 µM in the series on HuCC-A1 and 16.4 µM in series [3]. Further, in [4], the GI50 at 72 h stood at 18.1 µM.

In the case of `C=C1CC[C@@H]2[C@](C)(CO[Si](C(C)C)(C(C)C)C(C)C)[C@H](OC(C)=O)CC[C@@]2(C)[C@@H]1/C=C/C1=CCOC1=O`, the EC50 with P388 amounted to 12.1 µM; in the series on KB it was 7.17 µM; in the series with HT-29 it was 17.9 µM; with MCF7, 7.07 µM; with A549, 22 µM; in [1], 29.4 µM. The values for the EC50 (in series [2]; with HuCC-A1; in [3]) were 12.6 µM, 10.2 µM and 4.1 µM, respectively. In addition, the GI50 at 72 h in [4] worked out at 8.28 µM.

As for `CC(C)(C)[Si](OC[C@@]1(C)[C@H]2CC[C@@]3(CO3)[C@@H](/C=C/C3=CCOC3=O)[C@]2(C)CC[C@H]1O)(c1ccccc1)c1ccccc1`, the EC50 in the series with P388 came to 4.13 µM; in the series on KB it was 4.02 µM; with HT-29, 4.43 µM; with MCF7, 4.23 µM; with A549, 6.22 µM; in series [1] it was 6.81 µM. In addition, the values for the EC50 (in series [2]; in the series with HuCC-A1; in [3]) were 3.08 µM, 6.41 µM and 3.27 µM, respectively. Further, the GI50 at 72 h in series [4] is 4.97 µM.

Turning to `C=C1CC[C@@H]2[C@](C)(CO[Si](C(C)C)(C(C)C)C(C)C)[C@H](O)CC[C@@]2(C)[C@@H]1/C=C/C1=CCOC1=O`, the EC50 in the series on P388 came to 5.96 µM; in the series with KB, 4.7 µM; in the series with HT-29 it was 7.14 µM; in the series with MCF7 it was 5.46 µM; in the series on A549, 7.95 µM; in series [1], 7.35 µM. Moreover, the values for the EC50 (in [2]; with HuCC-A1; in series [3]) were 7.06 µM, 6.72 µM and 18.2 µM, respectively. Besides, the GI50 at 72 h in series [4] came to 5.28 µM.

Consider `CC(=O)O[C@@H]1CC[C@]2(C)[C@H](CC[C@@]3(CO3)[C@H]2/C=C/C2=CCOC2=O)[C@]1(C)CO[Si](C(C)C)(C(C)C)C(C)C`, for which the EC50 amounted to 7.84 µM in the series with P388; 8.48 µM in the series with KB; 7.4 µM with HT-29; 7.84 µM in the series with MCF7; 8.65 µM in the series with A549; 15.7 µM in series [1]. Also, the EC50 in series [2] was 7.22 µM; in the series on HuCC-A1, 8.92 µM; in series [3], 17.5 µM. The GI50 at 72 h in series [4] turned out to be 7.39 µM.

`CC(=O)O[C@@H]1CC[C@]2(C)[C@H](CC[C@@]3(CO3)[C@H]2/C=C/C2=CCOC2=O)[C@]1(C)CO[Si](c1ccccc1)(c1ccccc1)C(C)(C)C`: the EC50 worked out at 5.25 µM in the series with P388; 5.19 µM with KB; 5.22 µM in the series on HT-29; 6.38 µM in the series on MCF7; 8.31 µM in the series with A549; 8.96 µM in series [1]. Further, the results for the EC50 (in [2]; in the series with HuCC-A1; in [3]) were 5.13 µM, 8.08 µM and 4.5 µM, respectively. Moreover, the GI50 at 72 h in series [4] came out at 6.01 µM.

In the case of `C=C1CC[C@@H]2[C@](C)(COC(C)=O)[C@H](OC(C)=O)CC[C@@]2(C)[C@@H]1/C=C/C1=CCOC1=O`, the EC50 in the series with P388 was determined as 27.7 µM; in the series on KB, 25.7 µM; with HT-29, 41.9 µM; in the series with MCF7, 28.8 µM; in the series with A549, 34 µM; in series [1], 42.5 µM. Further, the EC50 was 37.3 µM in [2], 40.9 µM in the series with HuCC-A1 and above 50 µM in series [3]. Further, the GI50 at 72 h in series [4] is 25 µM.

Regarding `CC(C)[Si](OC[C@@]1(C)[C@H]2CC[C@@]3(CO3)[C@@H](/C=C/C3=CCOC3=O)[C@]2(C)CC[C@H]1O)(C(C)C)C(C)C`, the EC50 with P388 is 3.86 µM; in the series with KB, 4.59 µM; in the series with HT-29, 2.28 µM; with MCF7, 4.98 µM; in the series with A549, 6.58 µM; in series [1], 6.6 µM. Also, the figures for the EC50 (in [2]; in the series on HuCC-A1; in series [3]) were 3.37 µM, 7.35 µM and 2.93 µM, respectively. For the same compound, the GI50 at 72 h in series [4] stood at 4.04 µM.

Take `CC(=O)OC[C@@]1(C)[C@H]2CC[C@@]3(CO3)[C@@H](/C=C/C3=CCOC3=O)[C@]2(C)CC[C@H]1OC(C)=O`: the EC50 (with P388; in the series with KB; with HT-29; in the series with MCF7; with A549; in series [1]) was above 50 µM each time. Also, the EC50 (in [2]; in the series on HuCC-A1; in series [3]) was above 50 µM each time. The GI50 at 72 h in [4] was above 50 µM.

Regarding `C=C1CC[C@@H]2[C@](C)(COC(c3ccccc3)(c3ccccc3)c3ccccc3)[C@H](OC(C)=O)CC[C@@]2(C)[C@@H]1/C=C/C1=CCOC1=O`, the EC50 in the series with P388 came to 12.9 µM; in the series on KB, 6.36 µM; in the series on HT-29 it was 21.9 µM; with MCF7 it was 9.12 µM; with A549, 12 µM; in series [1], 39.9 µM. Also, the figures for the EC50 (in [2]; in the series on HuCC-A1; in [3]) were 9.98 µM, 38.6 µM and above 50 µM, respectively. In series [4], the GI50 at 72 h amounted to 7.02 µM.

Consider `CC(=O)OC[C@@]1(C)[C@H]2CC[C@@]3(CO3)[C@@H](/C=C/C3=CCOC3=O)[C@]2(C)CC[C@H]1O`, for which the EC50 is 20 µM in the series with P388; above 50 µM in the series with KB; 48.9 µM with HT-29; 43.5 µM in the series on MCF7; 46.3 µM in the series with A549; above 50 µM in series [1]. The EC50 in series [2] is 48.9 µM; in the series with HuCC-A1 it was above 50 µM; in series [3] it was above 50 µM. Further, in [4], the GI50 at 72 h stood at 38.1 µM.

In the case of `C[C@]1(CO)[C@H]2CC[C@@]3(CO3)[C@@H](/C=C/C3=CCOC3=O)[C@]2(C)CC[C@H]1O`, the EC50 (in the series on P388; in the series on KB; with HT-29; in the series with MCF7; in the series on A549; in series [1]) was above 50 µM each time. Also, the EC50 (in series [2]; in the series on HuCC-A1; in series [3]) was above 50 µM in each case. For the same compound, in series [4], the GI50 at 72 h is above 50 µM.

As to `C[C@]1(COC(c2ccccc2)(c2ccccc2)c2ccccc2)[C@H]2CC[C@@]3(CO3)[C@@H](/C=C/C3=CCOC3=O)[C@]2(C)CC[C@H]1O`, the EC50 was determined as 3.33 µM in the series with P388; 4.92 µM in the series with KB; 6.21 µM in the series with HT-29; 5.38 µM in the series on MCF7; 5.88 µM in the series with A549; 6.47 µM in series [1]. Further, the EC50 in series [2] is 4.68 µM; in the series with HuCC-A1 it was 7.81 µM; in series [3], 28.8 µM. For the same compound, the GI50 at 72 h in series [4] came out at 5.39 µM.

Consider `C=C1CC[C@@H]2[C@](C)(CO[Si](c3ccccc3)(c3ccccc3)C(C)(C)C)[C@H](OC(C)=O)CC[C@@]2(C)[C@@H]1/C=C/C1=CCOC1=O`, for which the EC50 in the series on P388 is 14.5 µM; in the series with KB it was 5.15 µM; with HT-29, 32.5 µM; in the series with MCF7, 7.77 µM; in the series with A549, 9.47 µM; in [1] it was above 50 µM. The EC50 in series [2] was 16 µM; in the series on HuCC-A1 it was 24.3 µM; in [3], above 50 µM. The GI50 at 72 h in series [4] was found to be 5.57 µM.

As to `C=C1CC[C@@H]2[C@](C)(CO[Si](C)(C)C(C)(C)C)[C@H](OC(C)=O)CC[C@@]2(C)[C@@H]1/C=C/C1=CCOC1=O`, the EC50 with P388 came out at 6.56 µM; in the series with KB, 4.94 µM; in the series with HT-29, 12.8 µM; in the series with MCF7, 6.37 µM; in the series on A549 it was 9.18 µM; in series [1] it was 16.2 µM. In addition, the EC50 in series [2] amounted to 12.1 µM; in the series on HuCC-A1, 16 µM; in series [3], 14 µM. Moreover, in series [4], the GI50 at 72 h was 6.36 µM.

On to `C=C1CC[C@@H]2[C@](C)(CO[Si](C)(C)C(C)(C)C)[C@H](O)CC[C@@]2(C)[C@@H]1/C=C/C1=CCOC1=O`, for which the EC50 is 8.24 µM in the series on P388; 5.12 µM in the series on KB; 8.48 µM in the series with HT-29; 7.61 µM with MCF7; 17.2 µM in the series on A549; 9.61 µM in series [1]. The EC50 in series [2] came out at 27.4 µM; with HuCC-A1, 18.2 µM; in series [3], 3.09 µM. The GI50 at 72 h in series [4] came out at 6.61 µM.
